From article PMC8026479 (Cancer Chemotherapy and Pharmacology, 2021)

Legend:
[1] = test system: transition rate constant from G1 to cycling for HSPCs; experiment: Semi-mechanistic multi-compartment PK/PD model of hematopoiesis; set-up: species or system mouse, rat, and dog; conditions: conservative modification of literature estimate; elimination rate constant 1/h
Description: Owing to the invasive nature of the PD marker collection (i.e. bone marrow aspiration), a semi-mechanistic PK/PD model based on animal PK/PD data and human PK data was developed to guide the selection of an optimal dose level for bone marrow aspiration in humans during dose escalation in the Phase I first-in-human study. The model was constructed using PK data from four species (mouse, rat, dog, and human) and PD data from three species (mouse, rat, and dog; Online Resources 1 and 2).
The PK/multi-compartment PD model was based on a myelosuppression model previously published by Friberg et al., with modifications. […] In the model used in the current study, stem cells and progenitor cells were separated into two compartments, with experimental data measured for each compartment. […] Another important deviation from the Friberg model was the mechanism postulated for the homeostasis of the […] (PMNs). We postulated that the feedback mechanism has a set point target and that deviations from that target would accelerate (in the case of too few PMNs) or decelerate (in the case of too many PMNs) the transition of G1-phase cells to S-phase cells in the stem cell population.
The model was constructed in two stages. First, preclinical PK data (e.g. doses, routes, and schedule of administration, observed concentrations) were compiled and modeled by allometric scaling. A sequential PK/PD modeling approach (population PK parameters and data approach) was then employed in which a semi-mechanistic PD model with various physiological compartments was created, and specific assumptions entered (Online Resource 3). Traditional forward addition/backward elimination was used for PK modeling. […] Many parameters in this complex model could not be estimated and were fixed either to the literature values or values selected on the basis of discussions with domain experts and sensitivity analysis. In preclinical animal models, the PD analysis modeled bone marrow cells positive for 5′-ethynyl-2′-deoxyuridine (EdU) and peripheral neutrophil counts simultaneously. […]

[2] = cited from earlier work

Question: With `O=c1[nH]cc(F)c(=O)[nH]1` [5-FU, 5-fluorouracil, reference compound] as the compound, how does the “pharmacologic activity half-life of 5-FU” value [1] read?
Answer: 42 min

Question: And the “half-life of 5-FU, literature estimate” value [2]?
Answer: 8 to 20 min
